Data set [1] deals with PrPSc in brain (RML scrapie).
A short description of data set [2]: Pharmacokinetic analysis of anle138b, compound in brain and serum by LC-MS (Example 15). The conditions noted are these: single dose, non-infected mice.
Data set [3] concerns RML scrapie. Type of data set: in vivo, C57BL/6 mice. Conditions: different times and schedules of treatment; p<0.01.
Data set [4] has as its system PrP^Sc accumulation in spleen (RML scrapie). Format: in vivo, C57BL/6 mice. Conditions: i.p. infection; 34 days of 1 mg compound per day in DMSO+peanut butter; spleen at 35 dpi.
Data set [5] concerns RML scrapie. Type of data set: in vivo, C57Bl6 mice. The conditions noted are these: i.c. RML scrapie.
Data set [6] concerns PrPSc in spleen (RML scrapie). Type of data set: in vivo, C57Bl6 mice. Conditions: i.p. RML scrapie; 25 μL 100 mM i.p. 14 days then 50 mg/kg oral; day 35 post infection.
The subject of data set [7] is RML scrapie. Type of data set: in vivo, C57BL/6 mice.
Data set [8] concerns PrP^Sc accumulation in brain (RML scrapie). Format: in vivo, C57BL/6 mice. The conditions noted are these: brain at 120 dpi.
Another data set addresses α-synuclein (Homo sapiens, UniProt P37840). The experiment in a line: Inhibition of the formation of α-synuclein aggregates (intermediate II oligomers), confocal single molecule spectroscopy (Example 16). Type of data set: biochemical.
Where [9] appears, read: i.c. RML scrapie, treatment from day 80.
[10] abbreviates: 5 mg per day orally in DMSO+peanut butter from 80 or 120 dpi.

SMILES strings stand for the structures. Entries after “also recorded” stand apart in the source; their conditions may differ. Like-named read-outs stand apart in the source and are kept apart here. Where only a bound is given, the exact number is not on record here.

As to `Brc1cccc(-c2cc(-c3ccc4c(c3)OCO4)n[nH]2)c1` [anle138b, 3-(1,3-Benzodioxol-5-yl)-5-(3-bromophenyl)-1H-pyrazole], in data set [1] (0.84 mg per day i.p. 14 days from 80 dpi then 2x5 days 1 mg by gavage, brain at 106 dpi, relative to DMSO-treated (0%) and start of treatment (100%)), the “Inhibition [%] of PrPSc accumulation in brain, protocol b” value worked out at 108%. Moreover, in data set [1] (setting [9]), the “change of relative PrPSc levels in brain compared to untreated control at day 80” value is reported as “slighty decreased” and the “pathological changes / apoptotic cells in cerebellar granule cell layer (H&E stained brain slices)” value is “reduction of pathological changes”. Besides, the “survival time until terminal stage of scrapie infection” value in data set [1] (i.c. RML scrapie, treatment from day 80, two anle138b mice additionally fed compound in peanut butter day 109 to 136) was “longer survival times”. Besides, in [2], the brain penetration entry is listed as “good brain penetration” and the oral bioavailability result was “good oral bioavailability”. In addition, in the data set on RML scrapie [3], the “survival times after challenge with RML scrapie” value is recorded as “significantly prolonged the survival times”. The “Inhibition [%] of PrPSc accumulation in spleen, protocol c” value in data set [4] was 62%. Besides, the “effect of treatment on survival time” value in the data set on RML scrapie [5] (daily i.p. for 14 days from day 80 post infection) is given as “significantly prolongs the survival times”. Besides, the “average survival time prolonged by, in comparison to DMSO vehicle group” value in the data set with RML scrapie [5] (i.p. 25 μL per day of 100 mM compound for 14 days from day 80 post infection) is listed as 14.9 days. Besides, in data set [6], the “PrPSc deposits in spleen tissue (immunohistology)” value is listed as “reduced” and the “splenic PrPSc level (immunoblot / dot blot) compared to vehicle-treated mice” value was “strong reduction in PrPSc levels; also recorded: decreases significantly”. In the data set with RML scrapie [7] (setting [10]), the “PrPSc accumulation in brain (stained sections, brain homogenates)” value is on record as “strongly reduced” and the “apoptotic cells in the cerebellum (neuronal cell death)” value is given as “inhibition of neuronal cell death”. Besides, the “time for which weight loss is prevented” value in the data set with RML scrapie [7] (5 mg per day orally, treatment from 80 dpi onwards) is about 100 days. In the data set on RML scrapie [7] (5 mg per day orally, treatment from 120 dpi), the “time for which weight loss is inhibited” value was about 70 days. Also, in data set [8] (1 mg compound per day orally in DMSO+peanut butter from 80 dpi, relative to DMSO-treated (0%) and start of treatment (100%)), the “Inhibition [%] of PrPSc accumulation in brain, protocol a” value came to 69%. In addition, the “PrPSc accumulation in brain, dose dependence” value in data set [8] (different amounts orally in DMSO+peanut butter from 80 dpi) is “reduced PrP^Sc accumulation in brain in a dose-dependent manner”.
`FCCn1nc(-c2ccc3c(c2)OCO3)cc1-c1cccc(Br)c1` [sery363a]: the “reduction of PrPC accumulation compared to DMSO-treated controls” value in data set [8] (3 mg compound per day orally in DMSO+peanut butter from 80 dpi) was 35%.
For the compound `Nc1ccc(-c2cc(-c3cccc(Cl)c3)n[nH]2)cc1` [sery383], the “inhibition of alpha-synuclein aggregation” value against α-synuclein is listed as “highly active”. The “Intermediate II (formation of intermediate II oligomers in comparison to controls without compound)” value at α-synuclein (compound 10 μM, aggregation induced by DMSO and 10 μM FeCl3) is under 5%. Besides, the “reduction of PrPC accumulation compared to DMSO-treated controls” value in data set [8] (1 mg compound per day orally in DMSO+peanut butter from 80 dpi) worked out at 30%.

The record behind these values is patent US10071966B2, “Drug for inhibiting aggregation of proteins involved in diseases linked to protein aggregation and/or neurodegenerative diseases” (Ludwig-Maximilians-Universität München, priority 2008, dated 2018).
